In patent publication US7368287B2, “Use of L-α-lysophosphatidylcholine to obtain the differentiation of monocytes into mature dendritic cells in vitro” (Biomerieux, priority 2002, dated 2008):

Assays:
[1] = tested on: monocytes isolated from human peripheral blood; experiment: Phenotype (CD83, HLA-DR, CD86 expression) by flow cytometry of monocytes differentiated in absence or presence of LPC; assay type: cell-based; details: 6th day of differentiation; 40 μM LPC added on day 5 for 24 hours
Protocol: Isolation, placing in culture and initiation of the differentiation of monocytes—The monocytes are isolated from human peripheral blood by means of first density gradient centrifugation (620 g; 20 minutes) in Ficoll-Hypaque, followed by second centrifugation (770 g; 20 minutes) in a 50% Percoll solution. The monocytes are then purified by immunomagnetic depletion (Dynal, Oslo, Norway), using a cocktail of anti-CD19 (hydridoma 4G7) (Becton Dickinson, Francklin Lakes, N.J., USA), anti-CD3 (OKT3, American Type Culture Collection, Rockeville, Md.) and anti-CD56 (NKH1, Beckman Coulter, Fullerton, Calif., USA) monoclonal antibodies. The monocytes thus obtained are then purified to at least 90%, as shown by the absence of CD1a markers and the presence of the CD14 marker. The differentiation of the monocytes into dendritic cells is initiated with 40 ng/ml of recombined human GM-CSF (Granulocyte-Macrophage Colony Stimulating Factor) and 250 U/ml of recombined human interleukin IL-4.
The monocytes are placed in culture in RPMI 1640 medium (Life Technologies, Rockeville, Md., USA) enriched with 2 mM of glutamine (Life Technologies), 10 mM of Hepes (Life Technologies), […] of gentamycin (Life Technologies) and 10% of lipoprotein-depleted fetal calf serum (LPDS, Sigma, St Quentin-Fallavier, France).
Treatment of the monocytes with LPC—5 days after the beginning of the differentiation of the monocytes, 40 μM of LPC (L-α-lysophosphatidylcholine; Sigma, St Quentin Fallavier, France) are added to the culture medium for 24 hours. Control cells are also obtained in the absence of LPC in the culture medium.
The cells used in this analysis are those obtained on the 6th day of differentiation according to the protocol described in example 1.
The phenotype of the “control” and “LPC” cells is analyzed by flow cytometry on a FACSCalibur (Becton Dickinson, Francklin Lakes, N.J., USA) using FITC (fluorosceine isothiocyanate)-conjugated anti-CD14, anti-HLA-DR and anti-CD80 and PE (phycoerythrin)-conjugated anti-CD1a, anti-CD83, anti-CD86 and anti-CD40 (Beckman Coulter). […]

PAF receptor = experiment: CD86 expression in presence of PAF or of the PAF antagonist BN52021; assay type: cell-based, human
Protocol: The phenotype of the “control” and “LPC” cells is analyzed by flow cytometry on a FACSCalibur (Becton Dickinson, Francklin Lakes, N.J., USA) using FITC (fluorosceine isothiocyanate)-conjugated anti-CD14, anti-HLA-DR and anti-CD80 and PE (phycoerythrin)-conjugated anti-CD1a, anti-CD83, anti-CD86 and anti-CD40 (Beckman Coulter). According to the state of the art, monocytes preferentially have a CD14+ CD1a− phenotype, immature dendritic cells preferentially have a CD14− CD1a+CD86− phenotype, and mature dendritic cells preferentially have a CD14− CD1a intermediate—CD86+ phenotype.
Thus, a solution of PAF (Sigma, 5 μM) was added to the culture medium on the 5th day of monocyte differentiation. The expression of CD86 by the “control” cells and by the “LPC” cells, obtained in the presence or in the absence of PAF, was analyzed according to the protocol described in example 2, and the results are given in table 9.
Thus, a solution of the PAF antagonist BN52021 (Biomol, Plymouth Meeting, USA, 100 μM) was added to the culture medium on the 5th day of monocyte differentiation. The expression of CD86 by the “control” and “LPC” cells, obtained in the presence or in the absence of BN52021, was analyzed according to the protocol described in example 2, and the results are given in table 10.

BALB/c mice [2] = experiment: HEL-specific IgG in serum by ELISA after immunization; assay type: in vivo, mouse; details: LPC 350 nmol co-injected with HEL, booster after 15 days; FIG. 1
Protocol: LPC stimulates the production of specific antibodies against a co-injected soluble antigen. LPC dissolved in PBS (350 nmol in 50 μl) is mixed with hen egg lysozyme (HEL, 1 mg/ml) and this mixture is injected into the plantar foot pad of BALB/c mice. The “HEL+LPC” batch of mice receives 50 μl of this mixture in the foot pads of the two hind feet. The “HEL” batch of mice receives 50 μl of HEL solution (1 mg/ml in PBS) in the two feet. After 15 days, a booster injection is given subcutaneously on the 2 flanks. The “HEL+LPC” batch receives, on each flank, 100 μl of a solution of LPC (5 mM) and of HEL (1 mg/ml) in PBS. The “HEL” batch receives, on each flank, 100 μl of a solution of HEL (1 mg/ml) in PBS. Two weeks later, blood is taken from the mice and the IgGs specific for the HEL antigen are assayed by ELISA with respect to a standard IgG solution range. The titration curves giving the absorbance (Abs) as a function of the logarithm of the serum dilution are represented in FIG. 1.

BALB/c mice [3] = experiment: Delayed contact hypersensitivity to the hapten DNFB (ear edema); assay type: in vivo, mouse; details: 500 nmol LPC on back 10 minutes before DNFB sensitization, 48 h after elicitation
Description: LPC can induce a CD8+ T lymphocyte response in vivo. In this example, a test for delayed contact hypersensitivity to haptens was used. In this model, BALB/c mice are sensitized by application of a hapten, DNFB (1-fluoro-2,4-dinitrobenzene, 0.5% solution in 1:1 olive oil/acetone), to the back. Five days later, a non-irritant dose of DNFB (0.2% solution in 1:1 olive oil/acetone) is applied to the left ear, whereas the right ear receives the solvent. In this elicitation phase, CD8^+ T lymphocytes specific for the haptenized proteins are recruited and infiltrate the ear, secreting γIFN and producing an edema.
A “control” batch of mice was sensitized with DNFB alone and another batch (“LPC” mice) received 500 nmol of LPC by application to the skin of the back of 20 μl of an ethanolic solution of LPC, 10 minutes before the application of DNFB. Five days later, the two batches were treated in the same way for the elicitation phase and the thickening of the ears was measured using a micrometer 48 h after this application.

NF-κB = details: high concentration of LPC (50 μM); cited from earlier work

L-α-lysophosphatidylcholine [LPC]
Expression of CD83 [1]: 11.74 | Expression of CD86 [1]: 759.69 | Expression of HLA-DR [1]: 146.31 | Expression of CD86 (PAF receptor; LPC cells = 100%, BN52021 100 μM added on 5th day): 100% | Expression of the CD86 marker (mean fluorescence intensity) (PAF receptor; PAF 5 μM and/or LPC added on 5th day): 287.11 | Increase in the expression of CD86 (PAF receptor; versus control cells, PAF 5 μM and/or LPC): 470% | Production of IgGs specific for the HEL antigen (BALB/c mice [2]): induces the synthesis of antibodies specific for the antigen | Thickening of the left ear (BALB/c mice [3]; left ear receives DNFB 0.2%): 149 ± 31 μm | Thickening of the right ear (BALB/c mice [3]; right ear receives solvent): 0 ± 3 μm | Activity of the transcription factor NF-κB (NF-κB): inhibits
